{
  "source": "paper PMC10041529",
  "about": "(Journal of Medicinal Chemistry, 2023)",
  "key": {"[1]": {"test_system": "calcineurin/NFAT pathway with overexpressed DYRK1A", "experiment": "NFAT translocation assay (EGFP-NFATc1 imaging) in HEK293T cells", "type": "cell-based, human", "details": "5 μM pretreatment 3 h, ionomycin 1 h"}, "[2]": {"target": "T1, DYRK1A-mediated phosphorylation of Cyclin D1 (Homo sapiens, UniProt Q13627)", "T1 construct": "expressed in transfected cells; host or cells: HEK293T (pcDNA3.1, transient)", "experiment": "Cyclin D1 phosphorylation profile (Western Blot) in transfected HEK293T cells", "type": "cell-based", "details": "HA-Cyclin D1 + FLAG-DYRK1A, 10 μM, 3 h"}, "DYRK1A": {"test_system": "DYRK1A", "set-up": "method as in PMID 29191878", "details": "cell lysates; Table S2 of ref 38; read-out: EC50 (Kinobeads); cited from earlier work"}, "CLK3": {"test_system": "CLK3", "set-up": "method as in PMID 21870818", "details": "at 500 nM; cited from earlier work"}, "[3]": {"target": "T2, DYRK1A kinase domain (126–490) (Homo sapiens, UniProt Q13627)", "T2 construct": "The recombinant kinase domains of DYRK1A (126–490) and GSK3β (26–383), both with C-terminal His-tag extension; made in house; host or cells: E. coli LOBSTR", "experiment": "Microscale thermophoresis (MST) direct binding assay", "details": "CK2α vs DYRK1A"}, "CK2α": {"test_system": "CK2α", "set-up": "method as in PMID 21870818", "details": "at 500 nM; cited from earlier work"}, "GSK3β": {"test_system": "GSK3β", "set-up": "method as in PMID 21870818", "details": "at 500 nM; cited from earlier work"}, "[4]": {"test_system": "calcineurin/NFAT pathway with overexpressed GSK3β", "experiment": "NFAT translocation assay (EGFP-NFATc1 imaging) in HEK293T cells", "type": "cell-based, human", "details": "pretreatment 3 h, ionomycin 1 h", "text": "One of the important cellular targets of DYRK1A and GSK3β is the NFAT (Nuclear factor of activated T-cells) transcription factor, which plays a major role in regulating the cell cycle.[52] The calcineurin/NFAT signaling controlled by DYRK1A and GSK3β activity is an important target for neurodegenerative processes and β-cell proliferation. Both kinases inactivate NFAT’s transcription factor by phosphorylation of its nuclear pool, which leads to cytosolic export. […] In unstimulated cells, EGFP-NFAT stayed predominantly in the cytosol, and only after stimulation with ionomycin, the nuclear translocation and accumulation of EGFP-NFAT were observed (Figure 4). Overexpression of any of the kinases blocked the nuclear accumulation of EGFP-NFAT upon cell stimulation, proving the negative regulation of the calcineurin/NFAT pathway by DYRK1A or GSK3β.\nEGFP-NFATc1 (green) was cotransfected with either a mock vector, DYRK1A (red), or GSK3β (red) into HEK293T cells.\nHEK293T cells were grown on a μ-Slide 8 well (IBIDI) to 50%–70% confluency. The plasmids expressing the desired proteins, mCherry-DYRK1A or mCherry-GSK3β and eGFP-NFATc1, were transiently cotransfected for 24 h with PEI Prime (Sigma-Aldrich). […] Images were collected with a Zeiss Axio Observer 3 fluorescence microscope and analyzed in ZEN Blue edition software."}, "HIPK3": {"test_system": "HIPK3", "set-up": "method as in PMID 21870818", "details": "at 500 nM; cited from earlier work"}, "DYRK2": {"test_system": "DYRK2", "set-up": "method as in PMID 21870818", "details": "at 500 nM; cited from earlier work"}, "[5]": {"target": "T3, GSK3β-mediated phosphorylation of Cyclin D1 (Homo sapiens, UniProt P49841)", "T3 construct": "we used only GSK3β (26–383) kinase domain constructs in our cellular studies; expressed in transfected cells; host or cells: HEK293T (pcDNA3.1, transient)", "T3 sequence (P49841 26-383)": "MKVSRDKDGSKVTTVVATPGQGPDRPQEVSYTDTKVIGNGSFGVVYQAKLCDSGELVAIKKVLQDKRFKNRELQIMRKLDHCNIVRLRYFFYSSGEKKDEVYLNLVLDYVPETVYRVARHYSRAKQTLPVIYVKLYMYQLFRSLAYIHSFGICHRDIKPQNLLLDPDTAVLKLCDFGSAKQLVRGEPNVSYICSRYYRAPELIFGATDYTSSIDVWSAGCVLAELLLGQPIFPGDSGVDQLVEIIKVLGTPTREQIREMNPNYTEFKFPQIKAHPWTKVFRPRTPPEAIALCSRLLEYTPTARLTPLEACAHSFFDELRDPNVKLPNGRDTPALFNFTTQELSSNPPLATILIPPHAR", "experiment": "Cyclin D1 phosphorylation profile (Western Blot) in transfected HEK293T cells", "type": "cell-based", "details": "HA-Cyclin D1 + FLAG-GSK3β, 10 μM, 3 h"}},
  "data": [
    {"molecule": "COc1ccc2c(c1)[nH]c1c(C)nccc12", "note": "[harmine]", "values": [
      {"measurement": "nuclear translocation of EGFP-NFAT despite overexpressed DYRK1A", "setting": "[1]", "value": "restore the calcineurin/NFAT pathway"},
      {"measurement": "effect on DYRK1A-mediated Cyclin D1 phosphorylation", "setting": "[2]", "value": "fully abolished"}
    ]},
    {"molecule": "O=C(O)c1ccc2c(c1)nc(Nc1cccc(Cl)c1)c1ccncc12", "note": "[CX-4945, 5-(3-Chlorophenylamino)benzo[c][2,6]naphthyridine-8-carboxylic Acid]", "values": [
      {"measurement": "EC50", "setting": "DYRK1A", "value": "[…]"},
      {"measurement": "inhibition of CLK3", "setting": "CLK3", "value": "more than 90%"},
      {"measurement": "difference in binding between CK2α and DYRK1A", "setting": "[3]", "value": 5, "unit": "fold"},
      {"measurement": "inhibition of CK2α", "setting": "CK2α", "value": "more than 90%"},
      {"measurement": "inhibition of GSK3β", "setting": "GSK3β", "value": 55, "unit": "%"},
      {"measurement": "nuclear translocation of EGFP-NFAT despite overexpressed GSK3β", "setting": "[4]", "value": "reversed the effect of GSK3β-controlled NFAT cellular localization"},
      {"measurement": "nuclear translocation of EGFP-NFAT despite overexpressed DYRK1A", "setting": "[1]", "value": "restore the calcineurin/NFAT pathway"},
      {"measurement": "effect on DYRK1A-mediated Cyclin D1 phosphorylation", "setting": "[2]", "value": "complete inhibition"},
      {"measurement": "inhibition of HIPK3", "setting": "HIPK3", "value": "more than 90%"},
      {"measurement": "inhibition of DYRK2", "setting": "DYRK2", "value": "more than 95%"}
    ]},
    {"molecule": "O=C1Cc2c([nH]c3ccc(Br)cc23)-c2ncccc2N1", "note": "[1-azakenpaullone]", "values": [
      {"measurement": "effect on GSK3β-mediated Cyclin D1 phosphorylation", "setting": "[5]", "value": "same effect"},
      {"measurement": "nuclear translocation of EGFP-NFAT despite overexpressed GSK3β", "setting": "[4]", "value": "reversed the effect of GSK3β-controlled NFAT cellular localization"}
    ]}
  ]
}
